Experimental data published in BindingDB's records for doi:10.7270/Q2TX3CTT (Broad Institute, 2010).

Target: Glycogen synthase kinase-3 beta (Homo sapiens, UniProt P49841)
Assay: GSK3beta kinase inhibitor potency, dose response, biochemical, luminescence, cell-free homogeneous, retest (AID 434954)

Glycogen synthase kinase-3 beta, sequence (P49841 whole entry): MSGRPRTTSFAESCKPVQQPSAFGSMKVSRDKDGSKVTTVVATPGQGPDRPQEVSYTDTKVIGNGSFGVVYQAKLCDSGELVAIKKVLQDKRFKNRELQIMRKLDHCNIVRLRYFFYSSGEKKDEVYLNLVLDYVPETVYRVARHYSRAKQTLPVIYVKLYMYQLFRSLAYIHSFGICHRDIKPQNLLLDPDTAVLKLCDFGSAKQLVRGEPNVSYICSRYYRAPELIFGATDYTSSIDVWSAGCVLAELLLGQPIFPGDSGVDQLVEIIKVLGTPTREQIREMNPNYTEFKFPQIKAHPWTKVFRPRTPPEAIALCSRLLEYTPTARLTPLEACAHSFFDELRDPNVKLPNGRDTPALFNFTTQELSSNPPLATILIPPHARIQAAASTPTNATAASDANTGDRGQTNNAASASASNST

CCCCc1cc(=O)oc2cc(C)c(CN3CCCC3)c(O)c12 [4-butyl-7-methyl-5-oxidanyl-6-(pyrrolidin-1-ylmethyl)chromen-2-one]
EC50: > 300 µM

CCCCc1cc(=O)oc2c(CN(C)C)c(O)ccc12 [4-butyl-8-[(dimethylamino)methyl]-7-hydroxy-1-benzopyran-2-one]
EC50: > 300 µM

COc1ccc(-c2nc(-c3ccccc3)nc(Cl)c2C#N)cc1 [4-chloranyl-6-(4-methoxyphenyl)-2-phenyl-pyrimidine-5-carbonitrile]
EC50: > 300 µM

CCc1cc(=O)oc2cc(C)cc(O)c12 [4-ethyl-5-hydroxy-7-methyl-1-benzopyran-2-one]
EC50: > 300 µM

CCSc1ncnc2c(C#N)c3n(c12)CCCCC3 [4-ethylsulfanyl-7,8,9,10-tetrahydro-6H-pyrimido[3,4]pyrrolo[3,5-a]azepine-11-carbonitrile]
EC50: 77.5 µM

COc1cc([CH+][N-]NC(=O)c2ccc(O)cc2)ccc1Oc1ccc([N+](=O)[O-])cn1 [4-hydroxy-N-[[3-methoxy-4-(5-nitropyridin-2-yl)oxyphenyl]methylideneamino]benzamide;propan-2-ol]
EC50: > 300 µM

O=C(OCCN1CCCCC1)c1ccc(O)cc1 [4-hydroxybenzoic acid 2-(1-piperidinyl)ethyl ester]
EC50: > 300 µM

O=C(OCCCOC(=O)c1ccc(O)cc1)c1ccc(O)cc1 [4-hydroxybenzoic acid 3-[(4-hydroxyphenyl)-oxomethoxy]propyl ester]
EC50: 1.84 µM

C=CCNC(=O)c1ccc(OC)cc1 [4-methoxy-N-prop-2-enylbenzamide]
EC50: > 300 µM

COc1ccc(C(=O)OCCc2sc[n+](CC(=O)c3ccccc3)c2C)cc1 [4-methoxybenzoic acid 2-(4-methyl-3-phenacyl-5-thiazol-3-iumyl)ethyl ester;bromide]
EC50: 26 µM

Cc1ccc(S(=O)(=O)NC2=NC(=O)/C(=C/c3ccccc3)S2)cc1 [4-methyl-N-[(5Z)-4-oxo-5-(phenylmethylene)-2-thiazolyl]benzenesulfonamide]
EC50: > 300 µM

Cc1nc(Nc2ccc(S(N)(=O)=O)cc2)sc1C(=O)Nc1ccccc1 [4-methyl-N-phenyl-2-(4-sulfamoylanilino)-5-thiazolecarboxamide]
EC50: > 300 µM

CC(=O)CSc1nc(-c2cccs2)c(C#N)c(=O)[nH]1 [4-oxidanylidene-2-(2-oxidanylidenepropylsulfanyl)-6-thiophen-2-yl-1H-pyrimidine-5-carbonitrile]
EC50: > 300 µM

N#Cc1c(O)nc(-c2ccncc2)nc1-c1ccccc1 [4-oxidanylidene-6-phenyl-2-pyridin-4-yl-1H-pyrimidine-5-carbonitrile]
EC50: > 300 µM

CC(C)Nc1nc(-c2cccnc2)nc(-c2ccccc2)c1C#N [4-phenyl-6-(propan-2-ylamino)-2-pyridin-3-yl-pyrimidine-5-carbonitrile]
EC50: > 300 µM

N#Cc1c2n(c3c(S)ncnc13)CCCCC2 [4-sulfanylidene-1,6,7,8,9,10-hexahydropyrimido[3,4]pyrrolo[3,5-a]azepine-11-carbonitrile]
EC50: 0.304 µM

Cc1ccc(-c2nn(-c3ccccc3)cc2C=C2C(=O)CC(C)(C)CC2=O)cc1 [5,5-dimethyl-2-[[3-(4-methylphenyl)-1-phenylpyrazol-4-yl]methylidene]cyclohexane-1,3-dione]
EC50: > 300 µM

COc1cc(NC2=CC(=O)CC(C)(C)C2)cc(OC)c1OC [5,5-dimethyl-3-(3,4,5-trimethoxyanilino)-1-cyclohex-2-enone]
EC50: > 300 µM

CC1(C)CC(=O)C=C(Nc2cccc(C(F)(F)F)c2)C1 [5,5-dimethyl-3-[[3-(trifluoromethyl)phenyl]amino]cyclohex-2-en-1-one]
EC50: > 300 µM

COc1c(CC=C(C)C)cc(C2CC(=O)c3c(O)cc(O)cc3O2)c(CC=C(C)C)c1O (stereo not drawn) [5,7-dihydroxy-2-[3-hydroxy-4-methoxy-2,5-bis(3-methylbut-2-enyl)phenyl]-2,3-dihydrochromen-4-one]
EC50: > 300 µM

O=c1cc(-c2ccccc2)oc2cc(O)cc(O)c12 [5,7-dihydroxy-2-phenyl-4H-chromen-4-one]
EC50: > 300 µM

COc1cc(OC)c2c(-c3ccccc3)cc(=O)oc2c1 [5,7-dimethoxy-4-phenyl-chromen-2-one]
EC50: > 300 µM

Cc1cc(C)n2nc(C(=O)NN=Cc3ccc(O)cc3)nc2n1 [5,7-dimethyl-N'-[(4-oxocyclohexa-2,5-dien-1-ylidene)methyl]-[1,2,4]triazolo[1,5-a]pyrimidine-2-carbohydrazide]
EC50: 15.4 µM

COc1cc(-c2cc(=O)c3c(O)c(OC)c(OC)c(O)c3o2)ccc1O [5,8-dihydroxy-2-(4-hydroxy-3-methoxy-phenyl)-6,7-dimethoxy-chromone]
EC50: 24.9 µM

CC1CCCCN1c1nnc(N)s1 (stereo not drawn) [5-(2-methyl-1-piperidinyl)-1,3,4-thiadiazol-2-amine]
EC50: > 300 µM

COc1ccc(C=C2SC(Nc3ccccc3)=NC2=O)cc1 [5-(4-Methoxy-benzylidene)-2-phenylimino-thiazolidin-4-one]
EC50: > 300 µM

Cn1nnnc1Sc1c(Cl)cccc1[N+](=O)[O-] [5-({2-chloro-6-nitrophenyl}sulfanyl)-1-methyl-1H-tetraazole]
EC50: > 300 µM

O=C1NC(=Nc2ccccc2)SC1=Cc1ccccc1 [5-Benzylidene-2-phenylimino-thiazolidin-4-one]
EC50: > 300 µM

CCCCc1c(O)nc(SCC(=O)c2ccccc2)n(-c2ccccc2OC)c1=O [5-Butyl-6-hydroxy-3-(2-methoxy-phenyl)-2-(2-oxo-2-phenyl-ethylsulfanyl)-3H-pyrimidin-4-one]
EC50: > 300 µM

O=[N+]([O-])c1ccccc1[CH+][N-]n1c(C2CCCCC2)n[nH]c1=S [5-Cyclohexyl-4-{[1-(2-nitro-phenyl)-meth-(E)-ylidene]-amino}-4H-[1,2,4]triazole-3-thiol]
EC50: 155 µM

Cc1cccc(Nc2nc(NCC3CCCO3)nc(N)c2[N+](=O)[O-])c1 (stereo not drawn) [5-Nitro-N-(tetrahydro-furan-2-ylmethyl)-N'-m-tolyl-pyrimidine-2,4,6-triamine]
EC50: 4.11 µM

O=C1CN=C(c2cccs2)c2c(sc3c2CCCC3)N1 [5-Thiophen-2-yl-1,2,3,4,7,9-hexahydro-10-thia-6,9-diaza-benzo[a]azulen-8-one]
EC50: 3.09 µM

O=C(NN=Cc1ccc(-c2ccc(Cl)c(C(=O)O)c2)o1)c1cc2c(ccc3ccccc32)o1 [5-[5-[(benzo[e][1]benzofuran-2-carbonylhydrazinylidene)methyl]furan-2-yl]-2-chlorobenzoic acid]
EC50: > 300 µM

O=C(O)c1cc(-c2ccc(C=NNC(=S)Nc3ccccc3)o2)ccc1Cl [5-[5-[[[anilino(sulfanylidene)methyl]hydrazinylidene]methyl]-2-furanyl]-2-chlorobenzoic acid]
EC50: > 300 µM

CC(C)OCCCNC(=O)c1ccc(CS(=O)(=O)Cc2ccccc2F)o1 [5-[(2-fluorophenyl)methylsulfonylmethyl]-N-(3-propan-2-yloxypropyl)furan-2-carboxamide]
EC50: > 300 µM

COCCCNC(=O)c1ccc(CS(=O)(=O)c2ccc(OC)cc2)o1 [5-[(4-methoxyphenyl)sulfonylmethyl]-N-(3-methoxypropyl)furan-2-carboxamide]
EC50: > 300 µM

COC(=O)c1ccc(CSc2ccc3nnc(-c4ccc(F)cc4)n3n2)o1 [5-[[[3-(4-fluorophenyl)-[1,2,4]triazolo[4,3-b]pyridazin-6-yl]thio]methyl]-2-furancarboxylic acid methyl ester]
EC50: 4.59 µM

CN1CCN(c2ccccc2NC(=O)c2ccc(Br)o2)CC1 [5-bromanyl-N-[2-(4-methylpiperazin-1-yl)phenyl]furan-2-carboxamide]
EC50: 19.3 µM

COc1ccc(-c2nn(-c3ccccc3)cc2C=NNC(=O)c2ccc(Br)o2)cc1 [5-bromo-N-[[3-(4-methoxyphenyl)-1-phenyl-4-pyrazolyl]methylideneamino]-2-furancarboxamide]
EC50: > 300 µM

CCCCCc1cc(O)c2c(C)cc(=O)oc2c1 [5-hydroxy-4-methyl-7-pentyl-1-benzopyran-2-one]
EC50: > 300 µM

CCCc1cc(O)c2c(C)cc(=O)oc2c1 [5-hydroxy-4-methyl-7-propyl-1-benzopyran-2-one]
EC50: > 300 µM

CCCc1cc(=O)oc2cc(C)cc(O)c12 [5-hydroxy-7-methyl-4-propyl-1-benzopyran-2-one]
EC50: > 300 µM

CCCc1cc(=O)oc2cc(C)c(CN3CCCC3)c(O)c12 [5-hydroxy-7-methyl-4-propyl-6-(1-pyrrolidinylmethyl)-2H-chromen-2-one]
EC50: > 300 µM

O=C(NCCCN1CCCC1=O)c1c(O)n2ccsc2nc1=O [5-hydroxy-7-oxo-N-[3-(2-oxo-1-pyrrolidinyl)propyl]-6-thiazolo[3,2-a]pyrimidinecarboxamide]
EC50: > 300 µM

COc1ccc2c(c1)C(=O)C(=O)N2 [5-methoxy-2,3-dihydro-1H-indole-2,3-dione]
EC50: > 300 µM

Cc1c(C(=O)O)sc2ncnc(N3CCCCC3C)c12 (stereo not drawn) [5-methyl-4-(2-methyl-1-piperidinyl)thieno[2,3-d]pyrimidine-6-carboxylic acid]
EC50: > 300 µM

Nc1nc(NCC2CCCO2)nc(Nc2ccccc2)c1[N+](=O)[O-] (stereo not drawn) [5-nitro-2-N-(oxolan-2-ylmethyl)-4-N-phenylpyrimidine-2,4,6-triamine]
EC50: 2.17 µM

Cc1ccnc(NC(=O)c2ccc([N+](=O)[O-])o2)c1 [5-nitro-N-(4-methyl-2-pyridinyl)-2-furamide]
EC50: > 300 µM

CCCC1=Nc2ncnn2C(c2cccs2)C1C(=O)OCC (stereo not drawn) [5-propyl-7-thiophen-2-yl-1,7-dihydro-[1,2,4]triazolo[1,5-a]pyrimidine-6-carboxylic acid ethyl ester]
EC50: 23.2 µM

CC1CCCCN1c1ncnc(N)c1[N+](=O)[O-] (stereo not drawn) [6-(2-methylpiperidin-1-yl)-5-nitro-pyrimidin-4-amine]
EC50: 8.18 µM

CCOc1cc(C2Nc3ccccc3N=C3CC(C)(C)CC(=O)C32)ccc1O (stereo not drawn) [6-(3-ethoxy-4-hydroxyphenyl)-9,9-dimethyl-6,8,10,11-tetrahydro-5H-benzo[b][1,4]benzodiazepin-7-one]
EC50: > 300 µM

CCc1ccc(Oc2ncnc(N)c2[N+](=O)[O-])cc1 [6-(4-ethylphenoxy)-5-nitro-4-pyrimidinamine]
EC50: > 300 µM

COc1ccc(-c2cn3c(C)c(C(=O)Nc4ccncc4)sc3n2)cc1 [6-(4-methoxyphenyl)-3-methyl-N-(4-pyridyl)imidazo[2,1-b]thiazole-2-carboxamide]
EC50: > 300 µM
